Where a SMILES comes first, the peptide text is derived from it. Bridges are numbered along the chain shown (N, C = ends). Where no end group is shown, it is not given here.
Assays:
CR2-C3d interaction = target: T1, CR2-C3d interaction (Homo sapiens, UniProt P20023); test: Peptide competition ELISA, CR2-C3d (bound C3d, solution phase MBP-CR2); format: binding
T1 construct: DNA corresponding to residues 1-133 of wild-type CR2 (SCR1-2) was PCR amplified; made in house; host or cells: E. coli (pMAL-P2X)
T1 sequence (P20023 21-153): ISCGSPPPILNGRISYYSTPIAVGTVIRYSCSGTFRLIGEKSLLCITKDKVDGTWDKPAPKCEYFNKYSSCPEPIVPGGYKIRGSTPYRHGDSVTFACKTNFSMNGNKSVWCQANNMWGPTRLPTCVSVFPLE

[1] = target: T2, CR2-EBV gp350 interaction (Homo sapiens, UniProt P20023); test: biochemical
[2] = target: T2, CR2-EBV gp350 interaction; settings: peptides raised against CR2-C3d

With `CC(C)C[C@@H]1NC(=O)[C@H](CO)NC(=O)CNC(=O)[C@H](CCC(=O)O)NC(=O)[C@H](CO)NC(=O)[C@@H](N)CSSC[C@@H](C(=O)O)NC(=O)CNC(=O)[C@H](CCCCN)NC1=O` [gp350cp1] (H-CSEGSLKGC-OH; disulfide 1-9; N-terminus and C-terminus assumed) as the compound, how does the “effect on the CR2-C3d interaction (ligand specificity)” value (CR2-C3d interaction; peptide raised against CR2-EBV gp350) read?
The value was “unaffected”.

And the IC50 [1]?
Its IC50 is 150 µM.

With APAHLSSQ [control] as the compound, how does the IC50 (CR2-C3d interaction) read?
Its IC50 is 700 µM.

APQALSSQYSRT [C3dp1.1] was tested. Which IC50 (CR2-C3d interaction) did it give?
The IC50 was 70 µM.

How did the IC50 (CR2-C3d interaction) turn out when APQHLSSQ [C3dp1.3] was run?
The IC50 was 40 µM.

APQHLSSQYSRT [C3dp1] was tested. Which “effect on the CR2-EBV gp350 interaction (ligand specificity)” value [2] did it give?
The value was “largely unaffected”.

And the IC50 (CR2-C3d interaction)?
The IC50 was 100 µM.

DPKNHVH [C3dcp1.1, DPKNHVH] was tested. Which IC50 (CR2-C3d interaction) did it give?
The IC50 was 95 µM.

With IATANPRHHSTA [C3dp2.3] as the compound, how does the IC50 (CR2-C3d interaction) read?
Its IC50 is 160 µM.

With ISTSNPRAASTA [C3dp2.1] as the compound, how does the IC50 (CR2-C3d interaction) read?
Its IC50 is 150 µM.

ISTSNPRH [C3dp2.2] was tested. Which IC50 (CR2-C3d interaction) did it give?
Its IC50 is 190 µM.

How did the IC50 (CR2-C3d interaction) turn out when ISTSNPRHHSTA [C3dp2] was run?
The IC50 was 450 µM.

Which IC50 (CR2-C3d interaction) does the source give for TRSYQSSLHQPA [C3dp1.2] here?
The IC50 was 70 µM.

Reference: patent US20120108492A1, “LIGAND-SPECIFIC NON-ANTIBODY COMPOUNDS THAT INHIBIT CR2 ACTIVATION AND METHODS OF USE THEREOF” (The Regents of the University of Colorado, priority 2008, published 2012)
